Measurements as given in patent US20160326135A1, “2-HETARYL-PYRIDAZINONE DERIVATIVES AND THEIR USE AS HERBICIDES” (BAYER CROPSCIENCE AKTIENGESELLSCHAFT, priority 2013, published 2016).

Key:
Assay type in all cases: in vivo
[1] = test system: Abutilon theophrasti; experiment: Pre-emergence herbicidal action against harmful plants; details: application rate 320 g/ha, scored visually after 3 weeks, 100% = plants have died, 0% = like control plants
Excerpt: (§1) Seeds of monocotyledonous and dicotyledonous weed plants and crop plants are laid out in wood-fiber pots in sandy loam and covered with soil. The compounds of the invention, formulated in the form of wettable powders (WP) or as emulsion concentrates (EC), are then applied to the surface of the covering soil in the form of an aqueous suspension or emulsion at a water application rate equating to 600 to 800 I/ha, with addition of 0.2% wetting agent. After the treatment, the pots are placed in a greenhouse and kept under good growth conditions for the trial plants. The damage to the trial plants is scored visually after a trial duration of 3 weeks by comparison with untreated controls (herbicidal activity in percent (%): 100% efficacy=the plants have died, 0% efficacy=like control plants). In this trial, for example, compound no.

[2] = test system: Amaranthus retroflexus; experiment: as above; details: application rate 320 g/ha, scored visually after 3 weeks, 100% = plants have died, 0% = like control plants
Excerpt: as §1

[3] = test system: Echinochloa crus galli; experiment: as above; details: application rate 320 g/ha, scored visually after 3 weeks, 100% = plants have died, 0% = like control plants
Excerpt: as §1

[4] = test system: Matricaria inodora; experiment: as above; details: application rate 320 g/ha, scored visually after 3 weeks, 100% = plants have died, 0% = like control plants
Excerpt: as §1

[5] = test system: Setaria viridis; experiment: as above; details: application rate 320 g/ha, scored visually after 3 weeks, 100% = plants have died, 0% = like control plants
Excerpt: as §1

[6] = test system: Stellaria media; experiment: as above; details: application rate 320 g/ha, scored visually after 3 weeks, 100% = plants have died, 0% = like control plants
Excerpt: as §1

[7] = test system: Veronica persica; experiment: as above; details: application rate 320 g/ha, scored visually after 3 weeks, 100% = plants have died, 0% = like control plants
Excerpt: as §1

[8] = test system: Viola tricolor; experiment: as above; details: application rate 320 g/ha, scored visually after 3 weeks, 100% = plants have died, 0% = like control plants
Excerpt: as §1

[9] = test system: Amaranthus retroflexus; experiment: Post-emergence herbicidal action against harmful plants; details: application rate 80 g/ha, scored visually after about 3 weeks, 100% = plants have died, 0% = like control plants
Procedure: (§2) Seeds of monocotyledonous and dicotyledonous weed and crop plants are laid out in sandy loam in wood-fiber pots, covered with soil and cultivated in a greenhouse under good growth conditions. 2 to 3 weeks after sowing, the trial plants are treated at the one-leaf stage. The compounds of the invention, formulated in the form of wettable powders (WP) or as emulsion concentrates (EC), are then sprayed onto the green parts of the plants in the form of an aqueous suspension or emulsion at a water application rate equating to 600 to 800 I/ha, with addition of 0.2% wetting agent. After the trial plants have been left to stand in a greenhouse under optimal growth conditions for about 3 weeks, the efficacy of the formulations is scored visually in comparison to untreated controls (herbicidal action in percent (%): 100% efficacy=the plants have died, 0% efficacy=like control plants). In this trial, for example, compound no.

[10] = test system: Echinochloa crus galli; experiment: as above; details: application rate 80 g/ha, scored visually after about 3 weeks, 100% = plants have died, 0% = like control plants
Procedure: as §2

[11] = test system: Ipomoea purpurea; experiment: as above; details: application rate 80 g/ha, scored visually after about 3 weeks, 100% = plants have died, 0% = like control plants
Procedure: as §2

[12] = test system: Matricaria inodora; experiment: as above; details: application rate 80 g/ha, scored visually after about 3 weeks, 100% = plants have died, 0% = like control plants
Procedure: as §2

[13] = test system: Setaria viridis; experiment: as above; details: application rate 80 g/ha, scored visually after about 3 weeks, 100% = plants have died, 0% = like control plants
Procedure: as §2

[14] = test system: Stellaria media; experiment: as above; details: application rate 80 g/ha, scored visually after about 3 weeks, 100% = plants have died, 0% = like control plants
Procedure: as §2

[15] = test system: Veronica persica; experiment: as above; details: application rate 80 g/ha, scored visually after about 3 weeks, 100% = plants have died, 0% = like control plants
Procedure: as §2

[16] = test system: Viola tricolor; experiment: as above; details: application rate 80 g/ha, scored visually after about 3 weeks, 100% = plants have died, 0% = like control plants
Procedure: as §2

Cc1cnn(-c2ccc(C(F)(F)F)c(=O)n2C)c(=O)c1O [1-3, 4-hydroxy-5-methyl-2-(1-methyl-3-(trifluoromethyl)pyrid-2-on-6-yl)-pyridazin-3-one]
at least 80%: herbicidal activity in percent (efficacy) [1] | herbicidal activity in percent (efficacy) [2] | herbicidal activity in percent (efficacy) [3] | herbicidal activity in percent (efficacy) [4] | herbicidal activity in percent (efficacy) [5] | herbicidal activity in percent (efficacy) [6] | herbicidal activity in percent (efficacy) [7] | herbicidal activity in percent (efficacy) [8] | herbicidal action in percent (efficacy) [9] | herbicidal action in percent (efficacy) [10] | herbicidal action in percent (efficacy) [11] | herbicidal action in percent (efficacy) [12] | herbicidal action in percent (efficacy) [13] | herbicidal action in percent (efficacy) [14] | herbicidal action in percent (efficacy) [15] | herbicidal action in percent (efficacy) [16]
